Where a name gives a salt, the structure may show the parent alone. Read-outs that look alike come from different tables or passages of the source.
Target: T1, Cav2.2 (Homo sapiens, UniProt Q00975)
T1 construct: expressed in transfected cells; host or cells: HEK-293T/17 (transient, FuGENE 6)
Assay: HEK assay (whole-cell patch clamp, transiently transfected HEK-293T/17 cells, pulses P1 and P5)
Assay type: cell-based
Conditions: holding potential −100 mV
Method: HEK-293T/17 cells were transiently transfected in a similar manner as described in FuGENE 6 Package Insert Version 7, April 2002, Roche Applied Science, Indianapolis, Ind. The cells were plated at 2.5×10^5 cells in 2 mL in a 6-well plate, incubated for one night, and achieved a ˜30-40% confluence. In a small sterile tube, sufficient serum-free medium was added as diluent for FuGENE Transfection Reagent (Roche Applied Science, Indianapolis, Ind.) to a total volume of 100 μL. To this medium was added 3 μL of FuGENE 6 Reagent. The mixture was tapped gently to mix. To the prediluted FuGENE 6 Reagent was added 2 μg of DNA solution (0.8-2.0 μg/μL). The DNA/Fugene 6 mixture was gently pipeted to mix the contents and incubated for about 15 minutes at room temperature. The complex mixture was then added to the HEK-293T/17 cells, distributed around the well, and swirled to ensure even dispersal. The cells were returned to the incubator for 24 hours. The transfected cells were then replated at density 2.5×10^5 in a 35 mm dish with 5 glass coverslips and grew in low serum (1%) media for 24 hours. Coverslips with isolated cells were then transferred into a chamber, and calcium channel (e.g., L-type, N-type, etc.) current or other currents for counter screening were recorded from the transiently transfected HEK-293T/17 cells.
The whole-cell voltage clamp configuration of the patch clamp technique was employed to evaluate voltage-dependent calcium currents essentially as described by Thompson and Wong (1991), J. Physiol., 439: 671-689, the entire disclosure of which is herein incorporated by reference. To record calcium channel (e.g., L-type, N-type, etc.) currents for evaluation of inhibitory potency of compounds (steady-state concentration-response analysis), five pulses of 20-30 ms voltage steps to about +10 mV (the peak of the current voltage relationship) were delivered at five Hz every 30 second from a holding potential at −100 mV. In order to obtain an estimate of the degree of use-dependent block of the test compounds, IC50 values were determined at the first and fifth pulse of the train (P1 and P5, respectively, in Table 2). Compound evaluations were carried out essentially as described by Sah D. W. and Bean B. P. (1994), Mol. Pharmacol., 45:84-92, the entire disclosure of which is herein incorporated by reference.

[1] = fifth pulse (P5) of 5 Hz train, read-out: HEK Cav2.2 P5 IC50
[2] = first pulse (P1) of 5 Hz train, read-out: HEK Cav2.2 P1 IC50

T1 sequence (Q00975 whole entry): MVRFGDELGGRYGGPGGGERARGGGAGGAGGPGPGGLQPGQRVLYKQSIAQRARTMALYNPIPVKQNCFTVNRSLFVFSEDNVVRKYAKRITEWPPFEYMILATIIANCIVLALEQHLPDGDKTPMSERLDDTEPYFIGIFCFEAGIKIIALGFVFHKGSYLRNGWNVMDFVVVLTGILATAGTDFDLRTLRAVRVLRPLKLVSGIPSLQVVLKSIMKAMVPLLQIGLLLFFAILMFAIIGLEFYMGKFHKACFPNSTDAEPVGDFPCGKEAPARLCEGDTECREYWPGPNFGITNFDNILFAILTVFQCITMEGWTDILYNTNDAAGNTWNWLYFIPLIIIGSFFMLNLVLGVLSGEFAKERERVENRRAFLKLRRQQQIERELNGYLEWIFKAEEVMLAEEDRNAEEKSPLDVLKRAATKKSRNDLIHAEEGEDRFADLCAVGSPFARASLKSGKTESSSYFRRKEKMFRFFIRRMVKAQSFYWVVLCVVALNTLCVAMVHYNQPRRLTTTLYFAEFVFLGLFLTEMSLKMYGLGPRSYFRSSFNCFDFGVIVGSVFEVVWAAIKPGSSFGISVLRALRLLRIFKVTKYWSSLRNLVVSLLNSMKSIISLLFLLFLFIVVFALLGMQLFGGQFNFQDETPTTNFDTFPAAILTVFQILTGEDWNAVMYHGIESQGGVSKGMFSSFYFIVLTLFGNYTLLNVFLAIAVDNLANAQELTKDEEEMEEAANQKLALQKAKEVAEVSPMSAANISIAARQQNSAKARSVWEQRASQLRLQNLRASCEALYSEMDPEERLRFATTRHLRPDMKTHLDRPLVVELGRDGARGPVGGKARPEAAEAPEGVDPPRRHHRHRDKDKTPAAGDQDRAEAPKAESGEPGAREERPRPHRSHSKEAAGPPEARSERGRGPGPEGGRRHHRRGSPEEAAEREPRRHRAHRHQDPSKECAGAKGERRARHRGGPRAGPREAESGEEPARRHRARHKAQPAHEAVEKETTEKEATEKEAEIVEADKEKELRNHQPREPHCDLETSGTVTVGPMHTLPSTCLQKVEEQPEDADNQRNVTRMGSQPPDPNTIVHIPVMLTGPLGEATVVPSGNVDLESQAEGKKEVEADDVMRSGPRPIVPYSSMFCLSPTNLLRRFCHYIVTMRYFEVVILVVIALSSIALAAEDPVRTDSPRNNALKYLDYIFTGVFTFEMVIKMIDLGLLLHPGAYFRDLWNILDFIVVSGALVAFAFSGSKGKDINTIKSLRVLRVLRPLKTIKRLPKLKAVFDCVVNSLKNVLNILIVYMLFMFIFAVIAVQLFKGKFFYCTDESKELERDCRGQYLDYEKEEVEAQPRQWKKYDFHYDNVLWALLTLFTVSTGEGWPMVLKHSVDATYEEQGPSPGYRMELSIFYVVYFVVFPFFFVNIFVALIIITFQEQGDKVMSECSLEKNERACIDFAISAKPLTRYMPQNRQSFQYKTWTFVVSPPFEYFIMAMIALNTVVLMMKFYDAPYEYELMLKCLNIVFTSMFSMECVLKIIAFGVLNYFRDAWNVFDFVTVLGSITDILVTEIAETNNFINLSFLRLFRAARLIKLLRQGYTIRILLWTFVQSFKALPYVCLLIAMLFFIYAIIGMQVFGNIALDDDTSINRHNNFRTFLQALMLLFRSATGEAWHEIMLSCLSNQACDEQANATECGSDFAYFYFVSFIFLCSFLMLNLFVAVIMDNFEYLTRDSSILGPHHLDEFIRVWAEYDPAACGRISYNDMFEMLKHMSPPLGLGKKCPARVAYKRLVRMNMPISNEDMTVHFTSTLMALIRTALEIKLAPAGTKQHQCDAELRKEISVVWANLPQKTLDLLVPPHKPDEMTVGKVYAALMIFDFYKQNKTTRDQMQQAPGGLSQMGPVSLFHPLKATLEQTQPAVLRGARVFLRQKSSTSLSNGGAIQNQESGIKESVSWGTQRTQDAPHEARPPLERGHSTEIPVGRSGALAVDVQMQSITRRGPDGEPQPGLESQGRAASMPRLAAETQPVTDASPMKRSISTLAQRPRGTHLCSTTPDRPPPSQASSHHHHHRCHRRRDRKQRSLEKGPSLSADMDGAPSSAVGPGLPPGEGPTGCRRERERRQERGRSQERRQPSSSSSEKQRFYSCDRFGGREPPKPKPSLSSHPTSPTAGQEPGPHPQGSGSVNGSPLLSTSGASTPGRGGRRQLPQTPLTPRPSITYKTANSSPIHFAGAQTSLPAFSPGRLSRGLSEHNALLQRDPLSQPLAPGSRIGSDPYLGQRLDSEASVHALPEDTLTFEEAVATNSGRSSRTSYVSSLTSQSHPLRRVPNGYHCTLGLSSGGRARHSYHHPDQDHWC
T1 sequence (P54284 whole entry partner): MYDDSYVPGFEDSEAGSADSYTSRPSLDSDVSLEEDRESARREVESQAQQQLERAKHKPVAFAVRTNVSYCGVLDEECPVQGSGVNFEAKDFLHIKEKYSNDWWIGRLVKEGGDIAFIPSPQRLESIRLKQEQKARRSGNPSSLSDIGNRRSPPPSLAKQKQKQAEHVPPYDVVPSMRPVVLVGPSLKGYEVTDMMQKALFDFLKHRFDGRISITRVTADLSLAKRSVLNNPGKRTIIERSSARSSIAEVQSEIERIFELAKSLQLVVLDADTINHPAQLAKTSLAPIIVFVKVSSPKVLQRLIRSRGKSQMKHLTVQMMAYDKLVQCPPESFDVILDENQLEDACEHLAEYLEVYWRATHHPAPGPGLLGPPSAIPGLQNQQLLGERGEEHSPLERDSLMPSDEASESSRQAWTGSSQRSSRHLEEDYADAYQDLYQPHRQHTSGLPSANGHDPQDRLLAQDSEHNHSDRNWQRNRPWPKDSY
T1 sequence (P54289 25-946 partner limits assumed): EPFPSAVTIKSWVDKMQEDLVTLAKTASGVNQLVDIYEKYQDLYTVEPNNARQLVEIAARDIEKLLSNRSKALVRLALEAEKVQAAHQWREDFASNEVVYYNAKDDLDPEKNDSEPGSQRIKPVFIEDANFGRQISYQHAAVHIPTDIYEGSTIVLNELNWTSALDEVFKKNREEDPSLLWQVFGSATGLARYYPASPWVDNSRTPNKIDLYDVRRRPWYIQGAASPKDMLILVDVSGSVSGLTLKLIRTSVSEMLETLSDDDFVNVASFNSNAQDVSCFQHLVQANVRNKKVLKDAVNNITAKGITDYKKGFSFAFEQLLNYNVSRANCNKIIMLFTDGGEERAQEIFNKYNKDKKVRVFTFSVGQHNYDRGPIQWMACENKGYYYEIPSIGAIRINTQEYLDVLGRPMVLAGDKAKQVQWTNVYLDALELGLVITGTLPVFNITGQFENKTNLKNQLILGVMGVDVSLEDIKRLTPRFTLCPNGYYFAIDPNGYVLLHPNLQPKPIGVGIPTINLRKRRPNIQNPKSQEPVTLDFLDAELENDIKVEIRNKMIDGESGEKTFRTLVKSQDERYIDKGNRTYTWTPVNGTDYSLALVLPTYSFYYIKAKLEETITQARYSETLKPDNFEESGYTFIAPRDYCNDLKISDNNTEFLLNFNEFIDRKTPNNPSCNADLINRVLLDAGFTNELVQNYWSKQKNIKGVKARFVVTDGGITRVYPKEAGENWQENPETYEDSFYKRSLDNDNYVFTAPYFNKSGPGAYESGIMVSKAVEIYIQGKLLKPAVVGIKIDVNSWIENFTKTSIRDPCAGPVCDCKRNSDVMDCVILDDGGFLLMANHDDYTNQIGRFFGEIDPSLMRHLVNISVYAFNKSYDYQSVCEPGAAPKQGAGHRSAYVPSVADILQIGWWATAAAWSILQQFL
T1 sequence (P54289 947-1103 partner limits assumed): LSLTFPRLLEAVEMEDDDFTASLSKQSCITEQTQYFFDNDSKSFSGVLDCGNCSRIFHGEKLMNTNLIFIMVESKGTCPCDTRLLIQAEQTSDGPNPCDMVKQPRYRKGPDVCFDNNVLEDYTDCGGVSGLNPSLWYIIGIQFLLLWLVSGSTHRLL

| Compound | IC50 [1] [µM] | IC50 [2] [µM] |
| --- | --- | --- |
| CC(C)(C)C(=O)N(Cc1ccc(N2CC[C@H](Oc3ccccn3)C2)nc1)c1ccc(F)cc1 (stereo in doubt) [Compound 50, N-(4-Fluorophenyl)-2,2-dimethyl-N-{6-[3-(pyridin-2-yloxy)-pyrrolidin-1-yl]-pyridin-3-ylmethyl}-propionamide] | 0.8 | 3.7 |
| CC(C)(C)C(=O)N(Cc1cnc(N2CCCC2)s1)c1ccc(F)cc1 [Compound 1, N-(4-fluorophenyl)-2,2-dimethyl-N-(2-pyrrolidin-1-yl-thiazol-5-ylmethyl)-propionamide hydrochloride] | 8.3 | 20.3 |
| CCN(CC)c1cccc(CN(C(=O)C(C)(C)C)c2ccc(F)cc2)n1 [Compound 4, N-(6-diethylamino-pyridin-2-ylmethyl)-N-(4-fluorophenyl)-2,2-dimethyl-propionamide hydrochloride] | 0.8 | 2.9 |
| CCN(CC)c1ccc(CN(C(=O)C(C)(C)C)c2ccc(F)cc2)cc1 [Compound 5, N-(4-Diethylaminobenzyl)-N-(4-fluorophenyl)-2,2-dimethyl-propionamide hydrochloride] | 1.1 | 2.9 |
| CCN(c1cccc(CN(C(=O)C(C)(C)C)c2ccc(F)cc2)c1)C1CC1 [Compound 6, N-(3-(Cyclopropyl(ethyl)amino)-benzyl)-N-(4-fluorophenyl)-2,2-dimethyl-propionamide hydrochloride] | 1.5 | 6.2 |
| CCN(c1ccc(CN(C(=O)C2CCN(Cc3ccccc3)CC2)c2ccc(F)cc2)cn1)C1CC1 [Compound 12, 1-benzyl-piperidine-4-carboxylic acid [6-(Cyclopropyl(ethyl)amino)-pyridin-3-ylmethyl]-(4-fluorophenyl)-amide dihydrochloride] | 0.4 | 1 |
| CCN(c1ccc(CN(C(=O)CCC(C)C)c2ccc(F)cc2)cn1)C1CC1 [Compound 13, 4-methyl-pentanoic acid [6-(Cyclopropyl(ethyl)amino)-pyridin-3-ylmethyl]-(4-fluorophenyl)-amide hydrochloride] | 1.8 |  |
| CCN(c1ccc(CN(C(=O)C2Cc3ccccc3CN2)c2ccc(F)cc2)cn1)C1CC1 (stereo not shown) [Compound 14, 1,2,3,4-tetrahydro-isoquinoline-3-carboxylic acid [6-(Cyclopropyl(ethyl)amino)-pyridin-3-ylmethyl]-(4-fluorophenyl)-amide dihydrochloride] | 0.6 | 10.1 |
| CCN(c1ccc(CN(C(=O)C2Cc3ccccc3CN2C)c2ccc(F)cc2)cn1)C1CC1 (stereo not shown) [Compound 15, 2-methyl-1,2,3,4-tetrahydro-isoquinoline-3-carboxylic acid [6-(Cyclopropyl(ethyl)amino)-pyridin-3-ylmethyl]-(4-fluorophenyl)-amide dihydrochloride] | 0.4 | 2.1 |
| CC(CC(=O)N(Cc1ccc(N(C)CCc2ccccn2)nc1)c1ccc(F)cc1)C(F)(F)F (stereo not shown) [Compound 23, 4,4,4-Trifluoro-N-(4-fluorophenyl)-3-methyl-N-{6-[methyl-(2-pyridin-2-yl-ethyl)-amino]-pyridin-3-ylmethyl}-butyramide] | 1.1 |  |
| CCN(CC)c1ccc(CN(C(=O)C(C)(C)C)c2ccc(F)cc2C)cn1 [Compound 36, N-(6-Diethylamino-pyridin-3-ylmethyl)-N-(4-fluoro-2-methyl-phenyl)-2,2-dimethyl-propionamide] | 1.3 | 3.5 |
| CCN(CC)c1ccc(CN(C(=O)C(C)(C)C)c2ccccc2C(C)C)cn1 [Compound 37, N-(6-Diethylamino-pyridin-3-ylmethyl)-N-(2-isopropyl-phenyl)-2,2-dimethyl-propionamide] | 0.7 | 1.8 |
| CN(CCO)c1ccc(CN(C(=O)C(C)(C)C)c2ccc(F)cc2)cn1 [Compound 38, N-(4-Fluorophenyl)-N-{6-[(2-hydroxy-ethyl)-methyl-amino]-pyridin-3-ylmethyl}-2,2-dimethyl-propionamide] | 7.6 | 17.1 |
| Cc1ccc(OCCN(C)c2ccc(CN(C(=O)C(C)(C)C)c3ccc(F)cc3)cn2)nc1 [Compound 39, N-(4-Fluorophenyl)-2,2-dimethyl-N-(6-{methyl-[2-(5-methyl-pyridin-2-yloxy)-ethyl]-amino}-pyridin-3-ylmethyl)-propionamide] | 0.5 | 1 |
| Cc1ccc(OCCN(C)c2ccc(CN(C(=O)C(C)(C)C)c3ccc(F)cc3)cn2)nn1 [Compound 40, N-(4-Fluorophenyl)-2,2-dimethyl-N-(6-{methyl-[2-(6-methyl-pyridazin-3-yloxy)-ethyl]-amino}-pyridin-3-ylmethyl)-propionamide] | 11.2 | 21 |
| CCN(Cc1ccncc1)c1ccc(CN(C(=O)C(C)(C)C)c2ccc(F)cc2)cn1 [Compound 41, N-[6-(Ethyl-pyridin-4-ylmethyl-amino)-pyridin-3-ylmethyl]-N-(4-fluorophenyl)-2,2-dimethyl-propionamide] | 2 | 6.3 |
| CC(C)(C)C(=O)N(Cc1ccc(N2CCCC2)nc1)c1ccc(F)cc1 [Compound 42, N-(4-Fluorophenyl)-2,2-dimethyl-N-(6-pyrrolidin-1-yl-pyridin-3-ylmethyl)-propionamide] | 7.4 | 11.6 |
| CCC(C)(C)C(=O)N(Cc1ccc(N2CCN(S(C)(=O)=O)CC2)nc1)c1ccc(F)cc1 [Compound 43, N-(4-Fluorophenyl)-N-[6-(4-methanesulfonyl-piperazin-1-yl)-pyridin-3-ylmethyl]-2,2-dimethyl-butyramide] | 3 | 10.2 |
| CC(=O)N1CCN(c2ccc(CN(C(=O)C(C)(C)C)c3ccc(F)cc3)cn2)CC1 [Compound 44, N-[6-(4-Acetyl-piperazin-1-yl)-pyridin-3-ylmethyl]-N-(4-fluorophenyl)-2,2-dimethyl-propionamide] | 7.5 | 18.4 |
| CCOC(=O)c1cn(C(C)(C)C(=O)N(Cc2ccc(N(CC)CC)nc2)c2ccc(F)cc2)nn1 [Compound 45, 1-{1-[(6-Diethylamino-pyridin-3-ylmethyl)-(4-fluorophenyl)-carbamoyl]-1-methyl-ethyl}-1H-[1,2,3]triazole-4-carboxylic acid ethyl ester] | 2.5 | 10.6 |
| CN(CCOCc1cccnc1)c1ccc(CN(C(=O)C(C)(C)C)c2ccc(F)cc2)cn1 [Compound 47, N-(4-Fluorophenyl)-2,2-dimethyl-N-(6-{methyl-[2-(pyridin-3-ylmethoxy)-ethyl]-amino}-pyridin-3-ylmethyl)-propionamide] | 1.6 | 9.5 |
| CC(C)(C)C(=O)N(Cc1ccc(N2CCCC2CO)nc1)c1ccc(F)cc1 (stereo not shown) [Compound 48, N-(4-Fluorophenyl)-N-[6-(2-hydroxymethyl-pyrrolidin-1-yl)-pyridin-3-ylmethyl]-2,2-dimethyl-propionamide] | 4.2 | 19.8 |
| CC(C)(C)C(=O)N(Cc1ccc(N2CCC[C@H]2COc2ccccn2)nc1)c1ccc(F)cc1 [Compound 49, N-(4-Fluorophenyl)-2,2-dimethyl-N-{6-[2-(pyridin-2-yloxymethyl)-pyrrolidin-1-yl]-pyridin-3-ylmethyl}-propionamide] | 0.6 | 2.3 |
| CC(C)(C)C(=O)N(Cc1ccc(N2CC[C@H](O)C2)nc1)c1ccc(F)cc1 [Compound 51, N-(4-Fluorophenyl)-N-[6-(3-hydroxy-pyrrolidin-1-yl)-pyridin-3-ylmethyl]-2,2-dimethyl-propionamide] | 12.8 | 34 |
| CCN(CC)C1CCN(c2ccc(CN(C(=O)C(C)(C)C)c3ccc(F)cc3)cn2)C1 (stereo not shown) [Compound 52, N-[6-(3-Diethylamino-pyrrolidin-1-yl)-pyridin-3-ylmethyl]-N-(4-fluorophenyl)-2,2-dimethyl-propionamide] | 6.3 | 17.1 |
| CC(C)(C)C(=O)N(Cc1ccc(N2CCC(c3nc4ccccc4[nH]3)CC2)nc1)c1ccc(F)cc1 [Compound 53, N-[4-(1H-Benzoimidazol-2-yl)-3,4,5,6-tetrahydro-2H-[1,2′]bipyridinyl-5′-ylmethyl]-N-(4-fluorophenyl)-2,2-dimethyl-propionamide] | 0.3 | 0.6 |
| CCN(CC)c1ccc(CN(C(=O)C(C)(C)n2cc(CN(C)C)nn2)c2ccc(F)cc2)cn1 [Compound 54, N-(6-Diethylamino-pyridin-3-ylmethyl)-2-(4-dimethylaminomethyl-[1,2,3]triazol-1-yl)-N-(4-fluorophenyl)-isobutyramide] | 5.3 | 8.9 |
